What was measured:
[1] = test system: Magnaporthe grisea; type: cell-based; settings: 100 ppm; for Average antifungal rate (%) / Antifungal rate of Magnaporthe grisea (%), Replicate 1 / Antifungal rate of Magnaporthe grisea (%), Replicate 2 / Antifungal rate of Magnaporthe grisea (%), Replicate 3: 96-well plate; for Average antifungal rate (%): average of 3 replicates
[2] = test system: eggs of Thrips; experiment: Effect on hatching of eggs of Thrips, leaf disc method; type: in vivo; settings: 100 ppm; for Hatching rate (%): 5 days after insecticide delivery
Method in brief: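 Egg-bearing Vicia faba leaf discs (diameter 2.0 cm, wetted filter paper beneath) were counted microscopically for baseline eggs. They were then soaked for 10 seconds in water or in test agent at 100 ppm. After moist incubation in lidded dishes, with controlled temperature and humidity and adequate indirect light, hatched larvae were counted five days post-delivery to judge hatching inhibition.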

[3] = test system: eggs of Panonychus citri; experiment: Effect on hatching of eggs of Panonychus citri, leaf disc method; type: in vivo; settings: 1 ppm; for Hatching rate (%), Replicate 1 / Hatching rate (%), Replicate 2 / Hatching rate (%), Replicate 3 / Number of hatched larvae 5 days after insecticide delivery, Replicate 1 / Number of hatched larvae 5 days after insecticide delivery, Replicate 2 / Number of hatched larvae 5 days after insecticide delivery, Replicate 3: Panonychus citri eggs; for Hatching rate (%), Replicate 1 / Hatching rate (%), Replicate 2 / Hatching rate (%), Replicate 3: 5 days after delivery; for Number of hatched larvae 5 days after insecticide delivery, Replicate 1 / Number of hatched larvae 5 days after insecticide delivery, Replicate 2 / Number of hatched larvae 5 days after insecticide delivery, Replicate 3: leaf disc
[4] = test system: eggs of Harmonia axyridis; experiment: Effect on hatching of eggs of Harmonia axyridis, egg card immersion; type: in vivo; settings: 100 ppm; for Number of hatched larvae 4 days after insecticide delivery, Replicate 1 / Number of hatched larvae 4 days after insecticide delivery, Replicate 2 / Number of hatched larvae 4 days after insecticide delivery, Replicate 3: Harmonia axyridis egg cards, immersed 30 seconds; for Hatching rate (%), Replicate 1 / Hatching rate (%), Replicate 2 / Hatching rate (%), Replicate 3: Harmonia axyridis eggs, 4 days after delivery
Method in brief: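 Egg cards (~20 eggs each) dipped 30 s in 100 ppm insecticide, air dried and kept moist at 27° C; 5 cards per treatment, 3 replicates. Hatching assessed 4 days after treatment against pre-treatment egg counts, and control effect calculated by formula.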

[5] = Replicate 1, listed as 19-(S, S)
[6] = Replicate 2, listed as 19-(S, S)
[7] = Replicate 3, listed as 19-(S, S)
[8] = Replicate 1, listed as 19′-(R, R)
[9] = Replicate 2, listed as 19′-(R, R)

Q: Which “inhibitory rate against Magnaporthe grisea (in words)” value (“inhibitory rate” below) [1] does the source give for `CC[C@H](COc1ccc(Cl)cc1Cl)OS(=O)OCCF` (stereo partly drawn) [19-(R,S)] here?
A: strong inhibitory rate

Q: What about the “Average antifungal rate (%)” value [1] of the same compound?
A: 100.04%

Q: What about the “Antifungal rate of Magnaporthe grisea (%), Replicate 1” value (shortened to “Antifungal rate … (%), Replicate 1”) [1] of the same compound?
A: 99.73%

Q: And the “Antifungal rate of Magnaporthe grisea (%), Replicate 2” value (“Antifungal rate … (%), Replicate 2” below) [1]?
A: 100.15%

Q: What about the “Antifungal rate of Magnaporthe grisea (%), Replicate 3” value (from here on “Antifungal rate … (%), Replicate 3”) [1] of the same compound?
A: 100.24%

Q: And the “inhibitory activity on the hatching of eggs of Thrips (in words)” value (shortened to “inhibitory activity … of Thrips (in words)”) [2]?
A: strong inhibitory activities

Q: And the “Hatching rate (%)” value ([2]; Replicate 1)?
A: 0.00%

Q: And the “Hatching rate (%)” value ([2]; Replicate 2)?
A: 0.00%

Q: And the “Hatching rate (%)” value ([2]; Replicate 3)?
A: 0.00%

Q: What about the “Number of hatched larvae 5 days after insecticide delivery” value ([2]; Replicate 1) of the same compound?
A: 0

Q: What about the “Number of hatched larvae 5 days after insecticide delivery” value ([2]; Replicate 2) of the same compound?
A: 0

Q: And the “Number of hatched larvae 5 days after insecticide delivery” value ([2]; Replicate 3)?
A: 0

Q: What about the “inhibitory effect on the hatching of eggs of Panonychus citri (in words)” value (“inhibitory effect on the hatching” below) [3] of the same compound?
A: good inhibitory effects

Q: What about the “Hatching rate (%), Replicate 1” value [3] of the same compound?
A: 0.00%

Q: And the “Hatching rate (%), Replicate 2” value [3]?
A: 0.00%

Q: And the “Hatching rate (%), Replicate 3” value [3]?
A: 0.00%

Q: And the “Number of hatched larvae 5 days after insecticide delivery, Replicate 1” value (shortened to “Number of hatched larvae 5 days … Replicate 1”) [3]?
A: 0

Q: And the “Number of hatched larvae 5 days after insecticide delivery, Replicate 2” value (shortened to “Number of hatched larvae 5 days … Replicate 2”) [3]?
A: 0

Q: What about the “Number of hatched larvae 5 days after insecticide delivery, Replicate 3” value (shortened to “Number of hatched larvae 5 days … Replicate 3”) [3] of the same compound?
A: 0

Q: What about the “inhibitory activity on the hatching of eggs of Harmonia axyridis (in words)” value [4] of the same compound?
A: strong inhibitory activities

Q: What about the “Number of hatched larvae 4 days after insecticide delivery, Replicate 1” value (shortened to “Number of hatched larvae 4 days … Replicate 1”) [4] of the same compound?
A: 0

Q: And the “Number of hatched larvae 4 days after insecticide delivery, Replicate 2” value (shortened to “Number of hatched larvae 4 days … Replicate 2”) [4]?
A: 0

Q: And the “Number of hatched larvae 4 days after insecticide delivery, Replicate 3” value (shortened to “Number of hatched larvae 4 days … Replicate 3”) [4]?
A: 0

Q: And the “Hatching rate (%), Replicate 1” value [4]?
A: 0.00%

Q: What about the “Hatching rate (%), Replicate 2” value [4] of the same compound?
A: 0.00%

Q: What about the “Hatching rate (%), Replicate 3” value [4] of the same compound?
A: 0.00%

Q: With `CC[C@@H](COc1ccc(Cl)cc1Cl)OS(=O)OCCF` (stereo partly drawn) [19-(S,R)] as the compound, how does the “inhibitory rate” value [1] read?
A: strong inhibitory rate

Q: And the “Average antifungal rate (%)” value [1]?
A: 99.77%

Q: And the “Antifungal rate … (%), Replicate 1” value [1]?
A: 100.10%

Q: And the “Antifungal rate … (%), Replicate 2” value [1]?
A: 99.34%

Q: What about the “Antifungal rate … (%), Replicate 3” value [1] of the same compound?
A: 99.87%

Q: And the “inhibitory activity … of Thrips (in words)” value [2]?
A: strong inhibitory activities

Q: And the “Hatching rate (%)” value ([2]; Replicate 1)?
A: 0.00%

Q: What about the “Hatching rate (%)” value ([2]; Replicate 2) of the same compound?
A: 0.00%

Q: What about the “Hatching rate (%)” value ([2]; Replicate 3) of the same compound?
A: 0.00%

Q: What about the “Number of hatched larvae 5 days after insecticide delivery” value ([2]; Replicate 1) of the same compound?
A: 0

Q: And the “Number of hatched larvae 5 days after insecticide delivery” value ([2]; Replicate 2)?
A: 0

Q: And the “Number of hatched larvae 5 days after insecticide delivery” value ([2]; Replicate 3)?
A: 0

Q: And the “inhibitory effect on the hatching” value [3]?
A: good inhibitory effects

Q: And the “Hatching rate (%), Replicate 1” value [3]?
A: 0.00%

Q: And the “Hatching rate (%), Replicate 2” value [3]?
A: 0.00%

Q: What about the “Hatching rate (%), Replicate 3” value [3] of the same compound?
A: 0.00%

Q: And the “Number of hatched larvae 5 days … Replicate 1” value [3]?
A: 0

Q: What about the “Number of hatched larvae 5 days … Replicate 2” value [3] of the same compound?
A: 0

Q: And the “Number of hatched larvae 5 days … Replicate 3” value [3]?
A: 0

Q: And the “inhibitory activity on the hatching of eggs of Harmonia axyridis (in words)” value [4]?
A: strong inhibitory activities

Q: What about the “Number of hatched larvae 4 days … Replicate 1” value [4] of the same compound?
A: 0

Q: And the “Number of hatched larvae 4 days … Replicate 2” value [4]?
A: 0

Q: What about the “Number of hatched larvae 4 days … Replicate 3” value [4] of the same compound?
A: 0

Q: And the “Hatching rate (%), Replicate 1” value [4]?
A: 0.00%

Q: What about the “Hatching rate (%), Replicate 2” value [4] of the same compound?
A: 0.00%

Q: And the “Hatching rate (%), Replicate 3” value [4]?
A: 0.00%

Q: What does the source list for `CCC(COc1ccc(Cl)cc1Cl)OS(=O)OCCF` [19-(S,S)]?
A: inhibitory rate against Magnaporthe grisea (in words) [1]: strong inhibitory rate; Average antifungal rate (%) [1]: 84.69%; Antifungal rate of Magnaporthe grisea (%), Replicate 1 [1]: 86.52%; Antifungal rate of Magnaporthe grisea (%), Replicate 2 [1]: 83.17%; Antifungal rate of Magnaporthe grisea (%), Replicate 3 [1]: 84.38%; Hatching rate (%) [2, 5]: 14.4%; Hatching rate (%) [2, 6]: 13.89%; Hatching rate (%) [2, 7]: 11.46%; Number of hatched larvae 5 days after insecticide delivery [2, 5]: 18; Number of hatched larvae 5 days after insecticide delivery [2, 6]: 15; Number of hatched larvae 5 days after insecticide delivery [2, 7]: 11; Hatching rate (%), Replicate 1 ([3]; listed as 19-(S, S)): 10.08%; Hatching rate (%), Replicate 2 ([3]; listed as 19-(S, S)): 9.90%; Hatching rate (%), Replicate 3 ([3]; listed as 19-(S, S)): 10.47%; Number of hatched larvae 5 days after insecticide delivery, Replicate 1 ([3]; listed as 19-(S, S)): 12; Number of hatched larvae 5 days after insecticide delivery, Replicate 2 ([3]; listed as 19-(S, S)): 10; Number of hatched larvae 5 days after insecticide delivery, Replicate 3 ([3]; listed as 19-(S, S)): 9; Number of hatched larvae 4 days after insecticide delivery, Replicate 1 ([4]; listed as 19-(S, S)): 13; Number of hatched larvae 4 days after insecticide delivery, Replicate 2 ([4]; listed as 19-(S, S)): 15; Number of hatched larvae 4 days after insecticide delivery, Replicate 3 ([4]; listed as 19-(S, S)): 16; Hatching rate (%), Replicate 1 ([4]; listed as 19-(S, S)): 13.68%; Hatching rate (%), Replicate 2 ([4]; listed as 19-(S, S)): 14.56%; Hatching rate (%), Replicate 3 ([4]; listed as 19-(S, S)): 15.38%

Q: With `CCC(COS(=O)OCCF)Oc1ccc(Cl)cc1Cl` [19′-(R,R)] as the compound, how does the “inhibitory rate” value [1] read?
A: strong inhibitory rate

Q: What about the “Antifungal rate … (%), Replicate 1” value [1] of the same compound?
A: 96.97%

Q: What about the “Antifungal rate … (%), Replicate 2” value [1] of the same compound?
A: 97.35%

Q: And the “Antifungal rate … (%), Replicate 3” value [1]?
A: 97.26%

Q: And the “inhibitory activity … of Thrips (in words)” value [2]?
A: strong inhibitory activities

Q: And the “Hatching rate (%)” value [2, 8]?
A: 0.00%

Q: And the “Hatching rate (%)” value [2, 9]?
A: 0.00%

Q: What about the “Hatching rate (%)” value ([2]; Replicate 3) of the same compound?
A: 0.00%

Q: What about the “Number of hatched larvae 5 days after insecticide delivery” value [2, 8] of the same compound?
A: 0

Q: And the “Number of hatched larvae 5 days after insecticide delivery” value [2, 9]?
A: 0

Q: And the “Number of hatched larvae 5 days after insecticide delivery” value ([2]; Replicate 3)?
A: 0

Q: And the “inhibitory effect on the hatching” value [3]?
A: good inhibitory effects

Q: What about the “Hatching rate (%), Replicate 1” value [3] of the same compound?
A: 0.00%

Q: What about the “Hatching rate (%), Replicate 2” value [3] of the same compound?
A: 0.00%

Q: What about the “Hatching rate (%), Replicate 3” value [3] of the same compound?
A: 0.00%

Q: And the “Number of hatched larvae 5 days … Replicate 1” value [3]?
A: 0

Q: And the “Number of hatched larvae 5 days … Replicate 2” value [3]?
A: 0

Q: What about the “Number of hatched larvae 5 days … Replicate 3” value [3] of the same compound?
A: 0

Q: And the “inhibitory activity on the hatching of eggs of Harmonia axyridis (in words)” value [4]?
A: strong inhibitory activities

Q: And the “Number of hatched larvae 4 days … Replicate 1” value ([4]; listed as 19′-(R, R))?
A: 0

Q: What about the “Number of hatched larvae 4 days … Replicate 2” value ([4]; listed as 19′-(R, R)) of the same compound?
A: 0

Q: What about the “Number of hatched larvae 4 days … Replicate 3” value ([4]; listed as 19′-(R, R)) of the same compound?
A: 0

Q: What about the “Hatching rate (%), Replicate 1” value ([4]; listed as 19′-(R, R)) of the same compound?
A: 0.00%

Q: And the “Hatching rate (%), Replicate 2” value ([4]; listed as 19′-(R, R))?
A: 0.00%

Q: And the “Hatching rate (%), Replicate 3” value ([4]; listed as 19′-(R, R))?
A: 0.00%

Source: patent US20260184675A1, “CHIRAL ISOMERIC SULFITE COMPOUND AND APPLICATION THEREOF” (Chengdu Hanova BioSciences Co., Ltd, priority 2024, published 2026)
